Source: patent publication US6641851B2, “Herbal laxative preparation” (The Himalaya Drug Company, priority 2001, dated 2003)

System: Wistar rats
Assay: Laxative test in rats
Format: in vivo, rat
Settings: for laxative activity: 50 mg/kg b.wt, in words
Description: Animals Wistar rats (180-200 g) of either sex were used for the study. The animals were housed in standard laboratory conditions and provided with a temperature of 22±3° C., relative humidity of 50-55% and a 12-hour light/dark cycle. Drinking water and a synthetic pelleted diet (Lipton India Ltd., Mumbal) were supplied ad libitum. The Ethical Committee of the institution approved the experimental protocol. All the animals received humane care according to the criteria outlined in the “Guide for the care and use of Laboratory Animals” prepared by the National Academy of Sciences and published by The National Institute of Heath. Laxative Test in Rats Twenty-four animals of either sex were randomly divided into 4 groups of 6 rats each. Food was withdrawn 12 hrs. before the experiment. […] The animals were then housed individually in cages lined with blotting paper and observed for 24 hrs. The total number of wet fecal produced from each group was noted [Akah P A, Oli […](4):327]. The laxative property of the one of the selected extract KP-4 was further tested to determine the laxative property in relation to the dosage administered in rats. For the purpose the rats were grouped in four groups. Group I received saline and served as control. […] The animals were then housed individually in cages lined with blotting paper and observed for 24 hrs. The total number of wet fecal produced from each group was noted.

Structure (SMILES) | No of Animals Responded (50 mg/Kg, compounds from KP-1B) | No. of faeces (50 mg/Kg, compounds from KP-1B) | On set of Action (50 mg/Kg, compounds from KP-1B) [min] | Percentage of Action (50 mg/Kg, compounds from KP-1B) | laxative activity (listed as C8, 50 mg/kg) | laxative activity (listed as ferulic acid, 50 mg/kg)
COc1cc(/C=C/C(=O)O)ccc1O [Compound C-8, Ferulic acid] | 10/10 | 7.80 ± 0.80 | 179.00 ± 22.66 | 100 | significant laxative action | promising activity
COc1cc(C(=O)O)ccc1O [Compound C-9, Vanillic acid] | Nil |  |  | Nil |  | 
